In brackets after ≈: the same amount, converted by molar mass.
Columns and labels:
Format in all cases: cell-based
NIH-3T3 fibroblasts = assay: Chlorpromazine (CPZ)-induced cell phototoxicity under UVA, protective effect
Text: Chlorpromazine (CPZ) is a neuroleptic drug widely used in medicine because of its tranquilizing and antipsychotic properties. CPZ often causes side effects including cutaneous photosensitization and ocular damage.

Balb/c 3T3 fibroblasts = assay: Norfloxacin 3T3 phototoxicity test with or without DHQ treatment (Neutral Red uptake); settings: for Photoprotective effect against norfloxacin phototoxicity: increasing concentrations in treatment medium, UVA
Experimental: The phototoprotective potential of Dihydroquercetin was assessed using a method based on Norfloxacin phototoxicity test on fibroblasts […]. […] The study was aimed at evaluating the photoprotective potential of one test item, dihydroquercetin, against the deleterious effects of UVA exposure in presence of phototoxic substances such as Norfloxacin or chlorpromazin. Briefly, Balb/c 3T3 fibroblasts were maintained in culture for 48 h for formation of monolayers. Norfloxacin 3T3 phototoxicity test was performed in presence or absence of DHQ treatment in different conditions. After another 24 h incubation period, cell viability was determined by Neutral Red uptake. For each condition, cell viability was expressed as percentage relative to untreated solvent controls. Then the dose-response curves (at the EC50 level) obtained for Norfloxacin with or without DHQ treatment was compared to assess DHQ photoprotective potential.

human neutrophils [1] = assay: Polymorphonuclear neutrophils oxidative burst, ROS production by chemiluminescence (PMA activation); settings: neutrophils primed with TNF-α, activation by 100 ng/ml PMA; luminol chemiluminescence; FIG. 5
Experimental: ROS production is measured using a chemiluminescence standard procedure: briefly, one hundred microliters of human neutrophils (4×10^6/mL) were primed with TNF-α at 37° C. for 25 minutes. 100 μL luminol (1 μM final concentration) and HRP (62.5 U/mL final concentration) in HBSS were added, and 150-μL aliquots were transferred to a prewarmed 96-well luminometer plate. Light emission was recorded by a Berthold MicroLumat Plus luminometer (Berthold Technologies, Hartfordshire, United Kingdom) (data output is in relative light units per second)

human neutrophils [2] = assay: Neutrophils degranulation assessed by myeloperoxidase (MPO) release, fMLP stimulation, MPO enzyme immunoassay; settings: fMLP 45 minutes at 37° C.
Experimental: Neutrophils were stimulated with formyl-methionyl-leucyl-phenylalanine for 45 minutes at 37° C. MPO released from neutrophils were assayed by using an MPO enzyme immunoassay. [table]

## CN(C)CCCN1c2ccccc2Sc2ccc(Cl)cc21 [CPZ, Chlorpromazine, reference compound]
NIH-3T3 fibroblasts; Mus musculus, NIH3T3, light or radiation study, control experiment (no treatment), UVA
  IC50: 0.33 µg/mL (≈ 1.03 µM)

## Nc1ccc(C(=O)O)cc1 [PABA, para-aminobenzoic acid]
Balb/c 3T3 fibroblasts
  Photoprotective effect against norfloxacin phototoxicity: no effect

## O=C1c2c(O)cc(O)cc2O[C@H](c2ccc(O)c(O)c2)[C@H]1O [DHQ, Dihydroquercetin]
Human neutrophils [1]
  Effect on reactive oxygen species (ROS) production: Inhibitory effect
Balb/c 3T3 fibroblasts
  Photoprotective effect against norfloxacin phototoxicity: Dose-dependent photoprotective effect
NIH-3T3 fibroblasts; NIH-3T3 fibroblasts, FIG. 4
  Protection against phototoxicity induced by chlorpromazine+UVA: efficiently protects

## CCn1cc(C(=O)O)c(=O)c2cc(F)c(N3CCNCC3)cc21 [NFX, norfloxacin]
Balb/c 3T3 fibroblasts; Mus musculus, BALB/c3T3, light or radiation study, No DHQ treatment, UVA exposure, read-out: NFX EC 50
  EC50: 55 µg/mL (≈ 172 µM)

## CC(C)=CCC[C@](C)(O)C1CC=C(C)CC1 (stereo partly shown) [Bisabolol]
Human neutrophils [2]; Bisabolol 20 μM
  MPO release: 810 U/mL
Human neutrophils [2]; Bisabolol 40 μM
  MPO release: 500 U/mL
Human neutrophils [2]; Bisabolol 100 μM
  MPO release: 250 U/mL
Human neutrophils [2]; Bisabolol 200 μM
  MPO release: 248 U/mL

From US20210113518A1, “Composition And Use Thereof Against Drugs Induced Phototoxicity” (AC BIOSCIENCE SA, priority 2018, published 2021)
